Measured values: the NIST ThermoML archive (doi:10.1016/j.jct.2012.02.034)

Assay: excess molar enthalpy (molar enthalpy of mixing); xn = mol fraction of the nth substance listed
Conditions: 313.15 K, Fluid (supercritical or subcritical phases), Flow calorimetry

CCOC(C)=O [ethyl acetate] + O=C=O
Conditions	excess molar enthalpy [kcal/mol]
9000 kPa, x2 = 0.087	-0.108
9000 kPa, x2 = 0.172	-0.226
9000 kPa, x2 = 0.256	-0.325
9000 kPa, x2 = 0.381	-0.46
9000 kPa, x2 = 0.462	-0.525
9000 kPa, x2 = 0.542	-0.603
9000 kPa, x2 = 0.66	-0.684
9000 kPa, x2 = 0.737	-0.727
9000 kPa, x2 = 0.814	-0.713
9000 kPa, x2 = 0.889	-0.636
9000 kPa, x2 = 0.926	-0.541
9000 kPa, x2 = 0.963	-0.379
12000 kPa, x2 = 0.123	-0.1
12000 kPa, x2 = 0.235	-0.185
12000 kPa, x2 = 0.338	-0.243
12000 kPa, x2 = 0.432	-0.279
12000 kPa, x2 = 0.519	-0.308
12000 kPa, x2 = 0.599	-0.327
12000 kPa, x2 = 0.673	-0.335
12000 kPa, x2 = 0.742	-0.322
12000 kPa, x2 = 0.806	-0.302
12000 kPa, x2 = 0.866	-0.263
12000 kPa, x2 = 0.949	-0.16
12000 kPa, x2 = 0.975	-0.0887
15000 kPa, x2 = 0.132	-0.0865
15000 kPa, x2 = 0.25	-0.151
15000 kPa, x2 = 0.356	-0.208
15000 kPa, x2 = 0.452	-0.242
15000 kPa, x2 = 0.539	-0.274
15000 kPa, x2 = 0.618	-0.285
15000 kPa, x2 = 0.724	-0.275
15000 kPa, x2 = 0.788	-0.245
15000 kPa, x2 = 0.818	-0.227
15000 kPa, x2 = 0.875	-0.182
15000 kPa, x2 = 0.927	-0.124
15000 kPa, x2 = 0.953	-0.0896
18000 kPa, x2 = 0.071	-0.0617
18000 kPa, x2 = 0.137	-0.101
18000 kPa, x2 = 0.259	-0.166
18000 kPa, x2 = 0.367	-0.201
18000 kPa, x2 = 0.463	-0.224
18000 kPa, x2 = 0.55	-0.237
18000 kPa, x2 = 0.629	-0.24
18000 kPa, x2 = 0.7	-0.225
18000 kPa, x2 = 0.825	-0.18
18000 kPa, x2 = 0.88	-0.145
18000 kPa, x2 = 0.931	-0.0989
18000 kPa, x2 = 0.955	-0.0746
